Values of other authors, collected in US9533949B2, “Processes for the preparation of 3-alkyl indoles” (APOTEX PHARMACHEM INC., priority 2012, dated 2017).

How the values were obtained:
[1] = molecular target: T1, insulin-like growth factor-I receptor (IGF-1R) (Homo sapiens, UniProt P08069); conditions: allosteric inhibitor
[2] = molecular target: T1, insulin-like growth factor-I receptor (IGF-1R); conditions: allosteric inhibitor; remark: listed apart in the source
insulin receptor = insulin receptor (Homo sapiens, UniProt P06213)
D2 receptor = D2 receptor (Homo sapiens, UniProt P14416); conditions: selectivity to other GPCRs
Sequence of D2 receptor (P14416 whole entry): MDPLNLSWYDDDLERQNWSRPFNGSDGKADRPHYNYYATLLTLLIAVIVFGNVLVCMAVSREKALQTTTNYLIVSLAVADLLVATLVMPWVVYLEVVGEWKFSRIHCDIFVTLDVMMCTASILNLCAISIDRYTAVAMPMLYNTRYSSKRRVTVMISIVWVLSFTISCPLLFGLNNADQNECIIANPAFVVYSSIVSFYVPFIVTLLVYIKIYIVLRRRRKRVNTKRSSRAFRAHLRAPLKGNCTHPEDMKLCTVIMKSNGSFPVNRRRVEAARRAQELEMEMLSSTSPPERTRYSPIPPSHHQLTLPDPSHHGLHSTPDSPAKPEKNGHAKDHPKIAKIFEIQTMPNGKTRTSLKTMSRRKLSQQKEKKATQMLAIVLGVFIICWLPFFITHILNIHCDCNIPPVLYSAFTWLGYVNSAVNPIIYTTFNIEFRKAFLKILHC

T1 sequence (P08069 31-1367, species assumed): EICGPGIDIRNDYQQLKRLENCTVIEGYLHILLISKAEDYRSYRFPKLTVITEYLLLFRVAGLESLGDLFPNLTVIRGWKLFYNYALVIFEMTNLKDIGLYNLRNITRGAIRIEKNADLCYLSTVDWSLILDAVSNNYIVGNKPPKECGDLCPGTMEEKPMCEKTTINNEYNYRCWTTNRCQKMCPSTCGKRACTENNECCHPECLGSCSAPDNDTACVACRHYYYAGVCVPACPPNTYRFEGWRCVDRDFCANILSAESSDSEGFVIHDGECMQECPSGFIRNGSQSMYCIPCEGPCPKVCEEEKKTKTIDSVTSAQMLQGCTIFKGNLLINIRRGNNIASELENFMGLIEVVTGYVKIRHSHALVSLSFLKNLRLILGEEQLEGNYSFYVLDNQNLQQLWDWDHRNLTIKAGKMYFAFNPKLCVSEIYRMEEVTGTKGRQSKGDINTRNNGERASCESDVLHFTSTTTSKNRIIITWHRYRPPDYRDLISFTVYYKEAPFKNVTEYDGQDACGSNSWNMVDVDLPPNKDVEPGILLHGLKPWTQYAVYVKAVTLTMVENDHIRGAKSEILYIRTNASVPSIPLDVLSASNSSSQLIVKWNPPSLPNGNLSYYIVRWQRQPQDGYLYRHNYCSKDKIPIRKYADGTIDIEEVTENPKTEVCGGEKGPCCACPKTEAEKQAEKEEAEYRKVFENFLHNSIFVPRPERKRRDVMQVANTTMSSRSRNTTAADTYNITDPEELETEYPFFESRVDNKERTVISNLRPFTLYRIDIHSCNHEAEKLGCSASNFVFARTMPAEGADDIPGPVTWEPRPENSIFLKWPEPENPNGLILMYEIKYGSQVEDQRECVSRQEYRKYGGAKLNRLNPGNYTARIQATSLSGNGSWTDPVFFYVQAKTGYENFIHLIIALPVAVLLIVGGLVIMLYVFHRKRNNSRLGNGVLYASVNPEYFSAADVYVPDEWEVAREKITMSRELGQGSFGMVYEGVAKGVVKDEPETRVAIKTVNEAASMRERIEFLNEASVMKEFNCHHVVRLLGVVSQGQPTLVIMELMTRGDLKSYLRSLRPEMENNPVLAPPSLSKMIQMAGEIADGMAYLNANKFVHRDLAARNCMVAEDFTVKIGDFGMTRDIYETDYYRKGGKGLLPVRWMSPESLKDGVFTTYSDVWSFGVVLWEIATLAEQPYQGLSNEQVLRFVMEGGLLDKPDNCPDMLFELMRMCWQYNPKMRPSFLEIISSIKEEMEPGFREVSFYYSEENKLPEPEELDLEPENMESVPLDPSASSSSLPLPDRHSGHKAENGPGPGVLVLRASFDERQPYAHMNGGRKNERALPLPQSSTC
Sequence of insulin receptor (P06213 28-1382, species assumed): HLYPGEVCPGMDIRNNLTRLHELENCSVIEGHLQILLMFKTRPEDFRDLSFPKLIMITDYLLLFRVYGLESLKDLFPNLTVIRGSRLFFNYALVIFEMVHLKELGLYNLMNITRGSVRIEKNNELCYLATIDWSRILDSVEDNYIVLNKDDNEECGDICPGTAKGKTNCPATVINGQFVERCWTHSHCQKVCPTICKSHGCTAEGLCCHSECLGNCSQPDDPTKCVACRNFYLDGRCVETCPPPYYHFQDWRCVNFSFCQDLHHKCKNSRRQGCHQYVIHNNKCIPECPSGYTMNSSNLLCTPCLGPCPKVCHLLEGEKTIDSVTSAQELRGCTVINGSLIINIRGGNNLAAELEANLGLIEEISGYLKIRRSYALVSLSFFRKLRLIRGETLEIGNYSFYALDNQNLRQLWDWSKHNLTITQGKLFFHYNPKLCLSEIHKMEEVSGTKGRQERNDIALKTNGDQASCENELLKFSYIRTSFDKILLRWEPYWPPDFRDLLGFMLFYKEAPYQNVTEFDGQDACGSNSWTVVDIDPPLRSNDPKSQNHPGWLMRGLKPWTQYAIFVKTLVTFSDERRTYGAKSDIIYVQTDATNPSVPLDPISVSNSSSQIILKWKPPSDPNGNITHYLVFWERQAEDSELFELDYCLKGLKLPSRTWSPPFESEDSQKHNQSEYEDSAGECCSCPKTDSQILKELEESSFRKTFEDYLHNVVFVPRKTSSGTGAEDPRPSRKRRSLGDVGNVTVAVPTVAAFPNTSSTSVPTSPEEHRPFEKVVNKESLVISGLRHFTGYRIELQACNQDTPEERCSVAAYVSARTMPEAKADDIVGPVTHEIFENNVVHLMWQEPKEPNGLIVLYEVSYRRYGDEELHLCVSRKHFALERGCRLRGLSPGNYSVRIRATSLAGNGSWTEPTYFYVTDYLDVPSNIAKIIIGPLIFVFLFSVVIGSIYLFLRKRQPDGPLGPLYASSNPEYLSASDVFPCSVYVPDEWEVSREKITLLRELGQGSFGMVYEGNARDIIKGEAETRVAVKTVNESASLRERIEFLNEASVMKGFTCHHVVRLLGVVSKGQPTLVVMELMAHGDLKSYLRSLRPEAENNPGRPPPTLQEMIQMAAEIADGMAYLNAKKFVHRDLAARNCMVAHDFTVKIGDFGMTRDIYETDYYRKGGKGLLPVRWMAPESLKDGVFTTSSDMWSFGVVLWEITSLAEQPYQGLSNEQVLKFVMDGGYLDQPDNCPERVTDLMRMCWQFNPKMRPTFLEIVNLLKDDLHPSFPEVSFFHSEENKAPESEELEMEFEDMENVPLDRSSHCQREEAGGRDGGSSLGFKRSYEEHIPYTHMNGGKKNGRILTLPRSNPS

cellular IGF-1R activity [1] | biochemical IGF-1R activity [2] | no relevant interference with cellular insulin receptor signaling up to (insulin receptor) [µM] | IC50 (D2 receptor) [nM] | Compound
micromolar | nanomolar | > 30 | – | N#Cc1ccc2[nH]cc(CCCCN3CCC(NC(=O)c4cccc5c(C#N)c[nH]c45)CC3)c2c1 [compound 10, 3-Cyano-1H-indole-7-carboxylic acid {1-[4-(5-cyano-1H-indol-3-yl)butyl]piperidin-4-yl}amide]
– | – | – | 666 | N#Cc1ccc2[nH]cc(CCCCN3CCN(c4ccc5oc(C(N)=O)cc5c4)CC3)c2c1 [vilazodone, 5-{4-[4-(5-Cyano-3-indolyl)butyl]-1-piperazinyl}benzofuran-2-carboxamide]
